Results: PMC5392334, “Discovery and characterization of a novel irreversible EGFR mutants selective and potent kinase inhibitor CHMFL-EGFR-26 with a distinct binding mode” (Oncotarget, 2017)

Columns and labels:
[1] = target: T1, ABL1(T315I)-phosphorylated (Homo sapiens, UniProt P00519, T315I); experiment: KinomeScan; type: binding; conditions: read-out: % control
T1 construct: purchased DiscoveRx KINOMEscan

DLK = target: T2, DLK (Homo sapiens, UniProt Q12852); experiment: KinomeScan; type: binding; conditions: read-out: % control
T2 construct: purchased DiscoveRx KINOMEscan

NEK2 = target: T3, NEK2 (Homo sapiens, UniProt P51955); experiment: KinomeScan; type: binding; conditions: read-out: % control
T3 construct: purchased DiscoveRx KINOMEscan

FLT3(D835Y) = target: T4, FLT3(D835Y) (Homo sapiens, UniProt P36888, D835Y); experiment: KinomeScan; type: binding; conditions: read-out: % control
T4 construct: purchased DiscoveRx KINOMEscan

MST2 = target: T5, MST2 (Homo sapiens, UniProt Q13188); experiment: KinomeScan; type: binding; conditions: read-out: % control
T5 construct: purchased DiscoveRx KINOMEscan

[2] = system: NSCLC cell lines (H1975, HCC827, PC9, H3255; A549, H1355); experiment: Cell cycle analysis; type: cell-based, human
Protocol: We then examined CHMFL-EGFR-26's effect on cell cycle progression and apoptosis.
The cells were fixed in 70% cold ethanol and incubated at −20 °C overnight then stained with PI/RNase staining buffer (BD Pharmingen). Flow cytometry was performed using a FACS Calibur (BD), and results were analyzed by ModFit software.

PRKD3 = target: T6, PRKD3 (Homo sapiens, UniProt O94806); experiment: KinomeScan; type: binding; conditions: read-out: % control
T6 construct: purchased DiscoveRx KINOMEscan

CLK1 = target: T7, CLK1 (Homo sapiens, UniProt P49759); experiment: KinomeScan; type: binding; conditions: read-out: % control
T7 construct: purchased DiscoveRx KINOMEscan

CDKL3 = target: T8, CDKL3 (Homo sapiens, UniProt Q8IVW4); experiment: KinomeScan; type: binding; conditions: read-out: % control
T8 construct: purchased DiscoveRx KINOMEscan
T8 sequence (Q8IVW4 whole entry): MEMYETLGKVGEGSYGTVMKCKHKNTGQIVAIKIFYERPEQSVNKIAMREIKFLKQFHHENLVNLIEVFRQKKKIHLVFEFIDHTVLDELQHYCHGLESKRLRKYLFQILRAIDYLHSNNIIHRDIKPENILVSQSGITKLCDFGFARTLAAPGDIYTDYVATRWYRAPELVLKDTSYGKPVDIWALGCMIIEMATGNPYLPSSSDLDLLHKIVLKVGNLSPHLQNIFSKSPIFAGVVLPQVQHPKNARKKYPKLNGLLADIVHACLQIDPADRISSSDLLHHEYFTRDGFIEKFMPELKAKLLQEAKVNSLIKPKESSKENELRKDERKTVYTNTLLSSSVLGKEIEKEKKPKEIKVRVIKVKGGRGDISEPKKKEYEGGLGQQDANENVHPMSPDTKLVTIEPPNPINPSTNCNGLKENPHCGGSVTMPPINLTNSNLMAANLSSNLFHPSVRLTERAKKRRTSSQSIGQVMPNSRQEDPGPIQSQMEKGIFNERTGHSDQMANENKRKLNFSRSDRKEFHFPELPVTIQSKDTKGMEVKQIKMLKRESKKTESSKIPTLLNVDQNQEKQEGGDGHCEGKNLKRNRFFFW

ALK = target: T9, ALK (Homo sapiens, UniProt Q9UM73); experiment: KinomeScan; type: binding; conditions: read-out: % control
T9 construct: purchased DiscoveRx KINOMEscan
T9 sequence (Q9UM73 19-1620): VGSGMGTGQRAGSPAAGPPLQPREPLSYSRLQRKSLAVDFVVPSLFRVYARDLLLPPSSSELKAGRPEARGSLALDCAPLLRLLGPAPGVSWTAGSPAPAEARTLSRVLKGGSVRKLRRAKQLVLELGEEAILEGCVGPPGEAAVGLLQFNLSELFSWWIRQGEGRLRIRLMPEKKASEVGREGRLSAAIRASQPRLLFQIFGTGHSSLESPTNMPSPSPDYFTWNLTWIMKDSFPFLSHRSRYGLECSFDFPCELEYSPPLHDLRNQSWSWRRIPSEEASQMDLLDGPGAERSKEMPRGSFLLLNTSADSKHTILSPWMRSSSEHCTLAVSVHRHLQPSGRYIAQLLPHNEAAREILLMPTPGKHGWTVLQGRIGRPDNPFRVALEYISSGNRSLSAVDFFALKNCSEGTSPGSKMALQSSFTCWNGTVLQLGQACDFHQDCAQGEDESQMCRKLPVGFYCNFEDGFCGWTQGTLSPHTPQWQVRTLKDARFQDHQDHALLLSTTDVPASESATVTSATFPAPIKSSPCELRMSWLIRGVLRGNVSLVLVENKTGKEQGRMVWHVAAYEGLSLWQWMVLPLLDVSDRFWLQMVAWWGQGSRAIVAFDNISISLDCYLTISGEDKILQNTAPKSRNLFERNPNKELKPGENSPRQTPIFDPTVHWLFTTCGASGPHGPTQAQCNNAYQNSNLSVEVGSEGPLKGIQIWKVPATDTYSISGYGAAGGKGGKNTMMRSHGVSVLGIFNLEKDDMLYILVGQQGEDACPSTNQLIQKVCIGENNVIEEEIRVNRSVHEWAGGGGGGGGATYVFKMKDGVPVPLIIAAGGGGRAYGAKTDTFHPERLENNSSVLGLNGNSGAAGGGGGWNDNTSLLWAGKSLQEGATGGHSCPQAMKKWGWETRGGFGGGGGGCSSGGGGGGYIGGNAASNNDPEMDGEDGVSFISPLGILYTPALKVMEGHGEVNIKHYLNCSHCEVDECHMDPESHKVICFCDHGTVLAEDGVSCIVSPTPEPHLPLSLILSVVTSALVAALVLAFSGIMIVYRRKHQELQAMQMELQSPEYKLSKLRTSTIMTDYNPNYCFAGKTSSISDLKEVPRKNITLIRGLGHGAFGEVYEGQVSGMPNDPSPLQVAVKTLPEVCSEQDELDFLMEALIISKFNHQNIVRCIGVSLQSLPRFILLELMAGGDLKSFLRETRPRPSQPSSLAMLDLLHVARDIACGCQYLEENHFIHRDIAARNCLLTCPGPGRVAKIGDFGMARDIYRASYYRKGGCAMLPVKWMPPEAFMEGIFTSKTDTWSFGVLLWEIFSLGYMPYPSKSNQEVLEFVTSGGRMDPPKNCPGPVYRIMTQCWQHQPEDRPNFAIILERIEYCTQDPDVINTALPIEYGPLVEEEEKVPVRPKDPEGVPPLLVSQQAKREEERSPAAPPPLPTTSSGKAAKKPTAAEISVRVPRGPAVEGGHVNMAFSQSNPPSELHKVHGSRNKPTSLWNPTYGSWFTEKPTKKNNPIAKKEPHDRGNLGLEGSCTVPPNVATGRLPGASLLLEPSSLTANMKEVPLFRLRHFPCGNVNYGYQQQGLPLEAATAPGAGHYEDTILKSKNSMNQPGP

NEK7 = target: T10, NEK7 (Homo sapiens, UniProt Q8TDX7); experiment: KinomeScan; type: binding; conditions: read-out: % control
T10 construct: purchased DiscoveRx KINOMEscan

PLK4 = target: T11, PLK4 (Homo sapiens, UniProt O00444); experiment: KinomeScan; type: binding; conditions: read-out: % control
T11 construct: purchased DiscoveRx KINOMEscan

DYRK2 = target: T12, DYRK2 (Homo sapiens, UniProt Q92630); experiment: KinomeScan; type: binding; conditions: read-out: % control
T12 construct: purchased DiscoveRx KINOMEscan

NEK1 = target: T13, NEK1 (Homo sapiens, UniProt Q96PY6); experiment: KinomeScan; type: binding; conditions: read-out: % control
T13 construct: purchased DiscoveRx KINOMEscan

PIK3CA(C420R) = target: T14, PIK3CA(C420R) (Homo sapiens, UniProt P42336, C420R); experiment: KinomeScan; type: binding; conditions: read-out: % control
T14 construct: purchased DiscoveRx KINOMEscan

KIT(A829P) = target: T15, KIT(A829P) (Homo sapiens, UniProt P10721, A829P); experiment: KinomeScan; type: binding; conditions: read-out: % control
T15 construct: purchased DiscoveRx KINOMEscan

PKN2 = target: T16, PKN2 (Homo sapiens, UniProt Q16513); experiment: KinomeScan; type: binding; conditions: read-out: % control
T16 construct: purchased DiscoveRx KINOMEscan
T16 sequence (Q16513 whole entry): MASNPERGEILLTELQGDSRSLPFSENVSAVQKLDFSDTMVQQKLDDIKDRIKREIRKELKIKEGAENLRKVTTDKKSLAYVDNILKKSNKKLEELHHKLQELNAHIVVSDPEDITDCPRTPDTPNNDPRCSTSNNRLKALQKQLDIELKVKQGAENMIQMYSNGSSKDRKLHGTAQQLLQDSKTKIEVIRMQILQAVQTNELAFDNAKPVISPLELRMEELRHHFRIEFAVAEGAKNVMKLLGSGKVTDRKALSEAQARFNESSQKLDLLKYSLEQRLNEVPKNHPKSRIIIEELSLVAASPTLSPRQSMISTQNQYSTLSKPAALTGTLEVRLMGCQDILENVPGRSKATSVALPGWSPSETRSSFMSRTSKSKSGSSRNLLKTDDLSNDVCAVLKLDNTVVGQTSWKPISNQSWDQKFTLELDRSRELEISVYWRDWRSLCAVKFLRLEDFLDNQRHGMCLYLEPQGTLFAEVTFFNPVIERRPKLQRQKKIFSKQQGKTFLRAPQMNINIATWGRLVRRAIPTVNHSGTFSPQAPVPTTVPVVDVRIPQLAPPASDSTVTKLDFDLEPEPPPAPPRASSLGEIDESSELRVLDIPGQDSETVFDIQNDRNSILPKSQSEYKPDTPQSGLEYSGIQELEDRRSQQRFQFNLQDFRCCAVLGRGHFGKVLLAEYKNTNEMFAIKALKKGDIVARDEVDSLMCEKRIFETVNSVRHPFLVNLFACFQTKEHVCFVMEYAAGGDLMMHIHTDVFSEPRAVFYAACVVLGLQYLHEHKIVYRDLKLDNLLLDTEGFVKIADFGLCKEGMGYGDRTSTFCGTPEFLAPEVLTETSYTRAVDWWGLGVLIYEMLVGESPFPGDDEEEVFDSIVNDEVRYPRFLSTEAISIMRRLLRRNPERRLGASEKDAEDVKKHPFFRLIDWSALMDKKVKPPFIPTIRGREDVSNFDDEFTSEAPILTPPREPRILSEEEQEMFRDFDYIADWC

PIK3CA = target: T17, PIK3CA (Homo sapiens, UniProt P42336); experiment: KinomeScan; type: binding; conditions: read-out: % control
T17 construct: purchased DiscoveRx KINOMEscan

PFPK5(P.falciparum) = target: T18, PFPK5(P.falciparum) (Plasmodium falciparum, UniProt P61075); experiment: KinomeScan; type: binding; conditions: read-out: % control
T18 construct: purchased DiscoveRx KINOMEscan

EPHA3 = target: T19, EPHA3 (Homo sapiens, UniProt P29320); experiment: KinomeScan; type: binding; conditions: read-out: % control
T19 construct: purchased DiscoveRx KINOMEscan

PKN1 = target: T20, PKN1 (Homo sapiens, UniProt Q16512); experiment: KinomeScan; type: binding; conditions: read-out: % control
T20 construct: purchased DiscoveRx KINOMEscan

ERBB2 = target: T21, ERBB2 (Homo sapiens, UniProt P04626); experiment: KinomeScan; type: binding; conditions: read-out: % control
T21 construct: purchased DiscoveRx KINOMEscan

NEK9 = target: T22, NEK9 (Homo sapiens, UniProt Q8TD19); experiment: KinomeScan; type: binding; conditions: read-out: % control
T22 construct: purchased DiscoveRx KINOMEscan

CDKL5 = target: T23, CDKL5 (Homo sapiens, UniProt O76039); experiment: KinomeScan; type: binding; conditions: read-out: % control
T23 construct: purchased DiscoveRx KINOMEscan

BRAF = target: T24, BRAF (Homo sapiens, UniProt P15056); experiment: KinomeScan; type: binding; conditions: read-out: % control
T24 construct: purchased DiscoveRx KINOMEscan

[3] = system: BaF3-TEL-EGFR-L858R-C797S; experiment: Anti-proliferation, BaF3 isogenic cell lines (CellTiter-Glo); type: cell-based; conditions: Mus musculus, 72 hours, triplet testing
CAMK2G = target: T25, CAMK2G (Homo sapiens, UniProt Q13555); experiment: KinomeScan; type: binding; conditions: read-out: % control
T25 construct: purchased DiscoveRx KINOMEscan

LCK = target: T26, LCK (Homo sapiens, UniProt P06239); experiment: KinomeScan; type: binding; conditions: read-out: % control
T26 construct: purchased DiscoveRx KINOMEscan

MRCKA = target: T27, MRCKA (Homo sapiens, UniProt Q5VT25); experiment: KinomeScan; type: binding; conditions: read-out: % control
T27 construct: purchased DiscoveRx KINOMEscan

ULK2 = target: T28, ULK2 (Homo sapiens, UniProt Q8IYT8); experiment: KinomeScan; type: binding; conditions: read-out: % control
T28 construct: purchased DiscoveRx KINOMEscan
T28 sequence (Q8IYT8 whole entry): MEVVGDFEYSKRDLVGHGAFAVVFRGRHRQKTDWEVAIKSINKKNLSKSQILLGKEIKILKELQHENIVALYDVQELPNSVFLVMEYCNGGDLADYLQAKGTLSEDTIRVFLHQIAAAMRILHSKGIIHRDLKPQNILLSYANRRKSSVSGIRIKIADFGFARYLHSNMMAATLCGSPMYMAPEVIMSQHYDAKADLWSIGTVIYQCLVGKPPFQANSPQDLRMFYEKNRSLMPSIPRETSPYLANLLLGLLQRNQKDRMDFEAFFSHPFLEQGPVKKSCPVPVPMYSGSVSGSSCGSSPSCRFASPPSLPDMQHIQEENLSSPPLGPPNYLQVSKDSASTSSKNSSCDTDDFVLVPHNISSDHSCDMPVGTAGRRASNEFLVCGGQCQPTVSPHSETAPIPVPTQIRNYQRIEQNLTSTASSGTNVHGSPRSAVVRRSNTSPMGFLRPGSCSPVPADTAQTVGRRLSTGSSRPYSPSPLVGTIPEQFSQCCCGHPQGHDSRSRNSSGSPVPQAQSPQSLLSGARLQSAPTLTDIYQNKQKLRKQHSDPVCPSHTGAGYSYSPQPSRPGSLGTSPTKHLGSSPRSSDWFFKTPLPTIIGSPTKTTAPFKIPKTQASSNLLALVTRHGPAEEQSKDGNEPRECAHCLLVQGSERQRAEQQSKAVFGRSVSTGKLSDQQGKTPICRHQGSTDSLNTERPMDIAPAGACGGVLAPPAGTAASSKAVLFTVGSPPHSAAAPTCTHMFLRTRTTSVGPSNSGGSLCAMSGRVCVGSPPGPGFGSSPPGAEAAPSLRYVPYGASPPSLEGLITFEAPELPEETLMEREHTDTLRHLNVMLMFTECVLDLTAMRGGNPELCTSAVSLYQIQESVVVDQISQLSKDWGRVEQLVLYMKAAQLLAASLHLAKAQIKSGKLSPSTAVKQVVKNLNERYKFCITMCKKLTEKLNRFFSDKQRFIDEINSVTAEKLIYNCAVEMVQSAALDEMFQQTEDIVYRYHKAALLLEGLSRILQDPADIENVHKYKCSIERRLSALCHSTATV

FGFR3(G697C) = target: T29, FGFR3(G697C) (Homo sapiens, UniProt P22607, G697C); experiment: KinomeScan; type: binding; conditions: read-out: % control
T29 construct: purchased DiscoveRx KINOMEscan

[4] = target: T30, ABL1(Y253F)-phosphorylated (Homo sapiens, UniProt P00519, Y253F); experiment: KinomeScan; type: binding; conditions: read-out: % control
T30 construct: purchased DiscoveRx KINOMEscan

p38-gamma = target: T31, p38-gamma (Homo sapiens, UniProt P53778); experiment: KinomeScan; type: binding; conditions: read-out: % control
T31 construct: purchased DiscoveRx KINOMEscan

PIP5K2B = target: T32, PIP5K2B (Homo sapiens, UniProt P78356); experiment: KinomeScan; type: binding; conditions: read-out: % control
T32 construct: purchased DiscoveRx KINOMEscan

MLK2 = target: T33, MLK2 (Homo sapiens, UniProt Q02779); experiment: KinomeScan; type: binding; conditions: read-out: % control
T33 construct: purchased DiscoveRx KINOMEscan

[5] = target: T34, RSK1(Kin.Dom.2-C-terminal) (Homo sapiens, UniProt Q15418); experiment: KinomeScan; type: binding; conditions: read-out: % control
T34 construct: RSK1(Kin.Dom.2-C-terminal); purchased DiscoveRx KINOMEscan

CDK11 = target: T35, CDK11 (Homo sapiens, UniProt Q9BWU1); experiment: KinomeScan; type: binding; conditions: read-out: % control
T35 construct: purchased DiscoveRx KINOMEscan

SRC = target: T36, SRC (Homo sapiens, UniProt P12931); experiment: KinomeScan; type: binding; conditions: read-out: % control
T36 construct: purchased DiscoveRx KINOMEscan

CDK7 = target: T37, CDK7 (Homo sapiens, UniProt P50613); experiment: KinomeScan; type: binding; conditions: read-out: % control
T37 construct: purchased DiscoveRx KINOMEscan

FER = target: T38, FER (Homo sapiens, UniProt P16591); experiment: KinomeScan; type: binding; conditions: read-out: % control
T38 construct: purchased DiscoveRx KINOMEscan
T38 sequence (P16591 whole entry): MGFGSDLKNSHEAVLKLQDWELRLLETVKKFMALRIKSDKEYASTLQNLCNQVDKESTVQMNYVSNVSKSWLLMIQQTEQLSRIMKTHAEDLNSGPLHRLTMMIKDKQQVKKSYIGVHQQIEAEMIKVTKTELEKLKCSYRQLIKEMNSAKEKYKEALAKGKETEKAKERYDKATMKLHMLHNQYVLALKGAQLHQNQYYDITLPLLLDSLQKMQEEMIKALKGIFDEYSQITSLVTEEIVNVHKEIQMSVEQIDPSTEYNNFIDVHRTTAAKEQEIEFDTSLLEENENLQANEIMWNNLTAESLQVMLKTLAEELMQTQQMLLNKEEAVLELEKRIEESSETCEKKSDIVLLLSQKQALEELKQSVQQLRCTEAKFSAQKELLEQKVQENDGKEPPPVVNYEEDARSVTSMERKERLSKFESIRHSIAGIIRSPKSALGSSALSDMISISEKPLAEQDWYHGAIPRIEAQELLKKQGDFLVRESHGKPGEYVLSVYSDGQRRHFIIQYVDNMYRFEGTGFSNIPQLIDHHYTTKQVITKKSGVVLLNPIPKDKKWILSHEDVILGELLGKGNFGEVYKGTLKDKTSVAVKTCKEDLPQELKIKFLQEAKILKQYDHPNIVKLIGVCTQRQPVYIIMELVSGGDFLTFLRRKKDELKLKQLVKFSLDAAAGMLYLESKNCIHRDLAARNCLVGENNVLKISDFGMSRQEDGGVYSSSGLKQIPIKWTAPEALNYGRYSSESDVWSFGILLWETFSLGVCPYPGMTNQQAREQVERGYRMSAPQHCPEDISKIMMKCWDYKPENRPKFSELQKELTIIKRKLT

C=CC(=O)N1CCC[C@@H](n2nc(-c3ccc(OCc4cccc(C)n4)c(Cl)c3)c3c(N)ncnc32)C1 [CHMFL-EGFR-26]
remaining binding at 1 µM [1]: 98%
remaining binding at 1 µM (DLK): 78%
remaining binding at 1 µM (NEK2): 18%
remaining binding at 1 µM (FLT3(D835Y)): 97%
remaining binding at 1 µM (MST2): 53%
cell cycle progression ([2]; H1975, HCC827, PC9 and H3255 (EGFR mutants), 24-hour): dramatically blocked cell cycle at G0/G1 phase
cell cycle progression ([2]; wild-type EGFR lines A549 and H1355, up to 3 μM, 72-hour): did not cause cell cycle arrest
remaining binding at 1 µM (PRKD3): 92%
remaining binding at 1 µM (CLK1): 94%
remaining binding at 1 µM (CDKL3): 97%
remaining binding at 1 µM (ALK): 100%
remaining binding at 1 µM (NEK7): 90%
remaining binding at 1 µM (PLK4): 99%
remaining binding at 1 µM (DYRK2): 86%
remaining binding at 1 µM (NEK1): 92%
remaining binding at 1 µM (PIK3CA(C420R)): 100%
remaining binding at 1 µM (KIT(A829P)): 100%
remaining binding at 1 µM (PKN2): 53%
remaining binding at 1 µM (PIK3CA): 100%
remaining binding at 1 µM (PFPK5(P.falciparum)): 100%
remaining binding at 1 µM (EPHA3): 89%
remaining binding at 1 µM (PKN1): 99%
remaining binding at 1 µM (ERBB2): 0%
remaining binding at 1 µM (NEK9): 94%
remaining binding at 1 µM (CDKL5): 100%
remaining binding at 1 µM (BRAF): 85%
GI50 [3]: 3.2 µM
remaining binding at 1 µM (CAMK2G): 95%
remaining binding at 1 µM (LCK): 33%
remaining binding at 1 µM (MRCKA): 64%
remaining binding at 1 µM (ULK2): 97%
remaining binding at 1 µM (FGFR3(G697C)): 100%
remaining binding at 1 µM [4]: 100%
remaining binding at 1 µM (p38-gamma): 100%
remaining binding at 1 µM (PIP5K2B): 100%
remaining binding at 1 µM (MLK2): 80%
remaining binding at 1 µM [5]: 83%
remaining binding at 1 µM (CDK11): 100%
remaining binding at 1 µM (SRC): 100%
remaining binding at 1 µM (CDK7): 100%
remaining binding at 1 µM (FER): 56%
